Measurements taken from ChEMBL document CHEMBL1129089, “N-(substituted-phenyl) piperazines: antagonists with high binding and functional selectivity for dopamine D4 receptors” (Bioorg Med Chem Lett, 1996).

Columns and labels:
D(2) dopamine receptor = D(2) dopamine receptor (Homo sapiens, UniProt P14416); assay: Binding affinity at cloned human Dopamine receptor D2 expressed in CHO cells, using [125I]iodosulpiride as radioligand; assay type: cell-based
D(4) dopamine receptor = target: T1, D(4) dopamine receptor (Homo sapiens, UniProt P21917); assay: Binding affinity at cloned human Dopamine receptor D4 expressed in HEK 293 cells, using [3H]nemonapride as radioligand; assay type: cell-based, HEK293
T1 sequence (P21917 whole entry): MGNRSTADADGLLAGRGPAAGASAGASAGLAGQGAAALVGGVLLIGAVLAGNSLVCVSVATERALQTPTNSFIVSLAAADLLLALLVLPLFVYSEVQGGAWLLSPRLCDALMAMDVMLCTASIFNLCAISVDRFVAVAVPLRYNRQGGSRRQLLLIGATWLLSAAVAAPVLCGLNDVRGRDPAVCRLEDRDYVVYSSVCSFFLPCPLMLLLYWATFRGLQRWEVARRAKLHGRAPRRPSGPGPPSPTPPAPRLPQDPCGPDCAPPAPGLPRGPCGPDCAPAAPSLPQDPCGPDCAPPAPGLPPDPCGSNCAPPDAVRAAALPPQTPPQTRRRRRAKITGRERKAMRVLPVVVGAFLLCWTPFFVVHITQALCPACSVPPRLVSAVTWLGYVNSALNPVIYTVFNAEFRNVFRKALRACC

[1] = target: Dopamine receptors; D2 & D4 (Homo sapiens) (UniProt P14416+P21917); assay: Selectivity of D2 receptor over D4 receptor; assay type: protein assay
Chain of Dopamine receptors; D2 & D4 (Homo sapiens) (P14416 whole entry, looked up, one chain of several): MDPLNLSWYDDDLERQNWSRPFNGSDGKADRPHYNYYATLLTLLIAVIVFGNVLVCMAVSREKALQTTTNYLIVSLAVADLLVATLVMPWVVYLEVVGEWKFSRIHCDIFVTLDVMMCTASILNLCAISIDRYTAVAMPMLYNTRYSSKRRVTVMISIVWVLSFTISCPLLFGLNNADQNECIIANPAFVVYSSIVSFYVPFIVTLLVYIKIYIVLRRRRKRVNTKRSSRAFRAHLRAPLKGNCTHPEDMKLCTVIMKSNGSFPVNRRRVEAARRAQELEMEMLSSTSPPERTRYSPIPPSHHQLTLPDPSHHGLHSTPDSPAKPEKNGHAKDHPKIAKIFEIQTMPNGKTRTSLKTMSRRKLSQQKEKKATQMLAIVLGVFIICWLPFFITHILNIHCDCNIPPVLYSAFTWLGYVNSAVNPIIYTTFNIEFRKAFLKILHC

Chain of D(2) dopamine receptor (P14416 whole entry): as the sequence (P14416 whole entry, looked up, one chain of several) above

Compound	Ki (D(2) dopamine receptor) [µM]	Ki (D(4) dopamine receptor) [µM]	Selectivity [1]
CC(C)(C)C(=O)NCCCN1CCN(c2ccc(Cl)cc2)CC1	> 10	0.2	> 50
CC(C)(C)C(=O)NCCCCN1CCN(c2ccccc2)CC1	0.794	0.316	3
CC(C)(C)C(=O)NCCCCN1CCN(c2cccc(Cl)c2)CC1	0.251	0.1	3
CC(C)(C)C(=O)NCCCCCN1CCN(c2ccc(Cl)cc2)CC1	0.398	0.126	3
CC(C)(C)C(=O)NCCCCN1CCN(c2ccc(Cl)cc2)CC1	2.51	0.0126	200
CC(C)(C)C(=O)NCCCCN1CCN(c2ccc(C(F)(F)F)cc2)CC1	3.98	0.0501	80
CC(C)(C)C(=O)NCCCCN1CCN2c3ccc(Cl)cc3CCC2C1 (stereo not drawn)	0.398	0.0631	
O=C(NCCCCN1CCN(c2ccc(Cl)cc2)CC1)c1ccccc1	0.398	0.158	3
CC(C)C(=O)NCCCCN1CCN(c2ccc(Cl)cc2)CC1	2	0.126	16
COc1ccc(N2CCN(CCCCNC(=O)C(C)(C)C)CC2)cc1	> 10	0.316	> 30
CC(C)(C)C(=O)NCCCCN1CCN(c2ccc(F)cc2)CC1	2	0.126	15
CC1CN(CCCCNC(=O)C(C)(C)C)CCN1c1ccc(Cl)cc1 (stereo not drawn)	1.58	0.0631	
CC(C)(C)C(=O)NCCCCN1CCN(c2ccccc2Cl)CC1	0.0631	0.0794	1
CC(=O)NCCCCN1CCN(c2ccc(Cl)cc2)CC1	1.58	1.26	1

The remaining lines, values ahead:

Ki (D(2) dopamine receptor) [µM]	Ki (D(4) dopamine receptor) [µM]	Selectivity [1]	Compound
0.02	0.0126	2	COc1ccccc1N1CCN(CCCCNC(=O)C(C)(C)C)CC1
0.631	0.02	30	O=C(NCCCCN1CCN(c2ccc(Cl)cc2)CC1)C12CC3CC(CC(C3)C1)C2
0.158	0.0158	10	COc1cc(Cl)ccc1N1CCN(CCCCNC(=O)C(C)(C)C)CC1
2.51	0.0251	100	CC(C)(C)C(=O)NCCN1CCN(c2ccc(Cl)cc2)CC1
0.398	0.00501	80	O=C(NCCN1CCN(c2ccc(Cl)cc2)CC1)C12CC3CC(CC(C3)C1)C2
1.58	0.0316	50	CCCCC(C)(C)C(=O)NCCN1CCN(c2ccc(Cl)cc2)CC1
	0.00794	320	CCC(C)(C)C(=O)NCCN1CCN(c2ccc(Cl)cc2)CC1
1.58	0.0316	50	CC(C)(C)C(=O)NCCCCN1CCN(c2ccc(Br)cc2)CC1
1.58	0.0126	125	CCCC(C)(C)C(=O)NCCCCN1CCN(c2ccc(Cl)cc2)CC1
2.51	0.00794	320	CCCC(C)(C)C(=O)NCCN1CCN(c2ccc(Cl)cc2)CC1
1	0.0158	63	CCC(C)(C)C(=O)NCCCCN1CCN(c2ccc(Cl)cc2)CC1
1	0.01	100	CC1(C(=O)NCCCCN2CCN(c3ccc(Cl)cc3)CC2)CCCCC1
0.794	0.00794	100	CC1(C(=O)NCCN2CCN(c3ccc(Cl)cc3)CC2)CCCCC1
